Patent publication EP0596284A2, “Antimycotic cosmetic and dermatological compositions containing fatty acid esters” (Beiersdorf Aktiengesellschaft, priority 1992, dated 1994)
Read-outs that look alike come from different tables or passages of the source.

Tested on: Pityrosporum ovale
Assay: Agar diffusion test, inhibition zones around wells on selective agar plates
Assay type: cell-based
Conditions: for zone of inhibition at 0.5 % / zone of inhibition at 1 % / zone of inhibition at 5 % / zone of inhibition at 10 %: Malassezia furfur, 72 h, read-out: mittlerer Hemmhof-Durchmesser
Protocol: Testlösungen: • TY-Medium 10 g Trypton + 5 g Hefeextrakt + 10 g NaCI, aufgelöst in 1000 ml H20, gepuffert auf pH 7,4 , autoklaviert. • Testverbindung 1: Hexyllaurat • Testverbindung 2: Isopropylstearat • Testverbindung 3: Caprylsäure-/Caprinsäure-Triglycerid • Testverbindung 4: Glyceryllaurat
Pityrosporum ovale von drei Patienten mit Pityrosporum-Follikulitis, Pityriasis versicolor oder seborrhoischem Ekzem wurde in einer Mischung aus 50 % TY-Medium, 30 % Olivenöl und 20 % Tween 80 suspendiert. Die drei verschiedenen Hefestämme wurden in drei parallelen Ansätzen auf einer Selektivagarplatte für pathogene Pilze (Merck AG, Darmstadt) gleichmäßig ausgespatelt. Mit Hilfe steriler Korkbohrer wurden in jede Platte mehrere kreisrunde Vertiefungen gestanzt, in die Vertiefungen mit einem Durchmesser von 5 mm wurden jeweils 25 ul der Testlösungen gegeben. Die Testlösungen stellten 0,5 %-ige, 1,0 %- ige, 2,5 %-ige, 5,0 %-ige und 10,0 %-ige Lösungen der Testsubstanzen in Ethanol dar.
Nach dreistündiger Inkubation bei 37 C wurde das verdunstete Lösungsmittel durch je 25 ul Jojobaöl ersetzt und die Platten anschließend unter Beibehaltung der Wachstumsbedingungen drei Tage inkubiert. Während dieser Zeit diffundierten die Testsubstanzen in den die Vertiefungen umgebenden Nährboden.
Antimycotisch wirksame Testverbindungen zeigten nach dreitägiger Inkubation einen deutlichen konzentrischen Hemmhof um die Vertiefungen. Die Größe dieser Hemmhöfe, wiedergegeben in Tabelle 1, ist bei vergleichbarer Substanzkonzentration ein Maß für die antimycotische Wirksamkeit der Testverbindungen.

[1] = Konz. 0,5 % in Ethanol, 25 ul per 5 mm well, three patient strains, three days at 37 C
[2] = Konz. 1,0 % in Ethanol, 25 ul per 5 mm well, three patient strains, three days at 37 C
[3] = Konz. 5,0 % in Ethanol, 25 ul per 5 mm well, three patient strains, three days at 37 C
[4] = Konz. 10,0 % in Ethanol, 25 ul per 5 mm well, three patient strains, three days at 37 C

Row | Molecule | zone of inhibition at 0.5 % [1] | zone of inhibition at 1 % [2] | zone of inhibition at 5 % [3] | zone of inhibition at 10 % [4] | other results
1 | CCCCCCCCCCCC(=O)OCCCCCC [Testlösung 1, Hexyllaurat] | 14 mm | 15.5 mm | 18 mm | 20.7 mm | –
2 | CCCCCCCCCCCCCCCCCC(=O)OC(C)C [Testlösung 2, Isopropylstearat] | 10.7 mm | 14 mm | 18.7 mm | 20.7 mm | –
3 | CCCCCCCCCCCC(=O)OCC(O)CO (stereo not shown) [Testlösung 4, Glyceryllaurat] | – | – | – | – | zone of inhibition at 0.5 %: 11 mm; zone of inhibition at 1 %: 14 mm; zone of inhibition at 5 %: 16.5 mm; zone of inhibition at 10 %: 16.5 mm
4 | Caprylsäure-/Caprinsäure-Triglycerid [Testlösung 3] | – | – | – | – | mittlerer Hemmhof-Durchmesser [1]: 9,0 mm; mittlerer Hemmhof-Durchmesser [2]: 9,0 mm; mittlerer Hemmhof-Durchmesser [3]: 15,0 mm; mittlerer Hemmhof-Durchmesser [4]: 17,3 mm
